Test results: the NIST ThermoML archive (doi:10.1016/j.jct.2010.12.021)
Values joined by “and” are separate entries in the source; they are usually repeats but may differ in a detail not shown here. Equal entries are not always repeated. ± gives the expanded uncertainty stated by the source.

Assay: molar heat capacity at constant pressure
Conditions: 101.33 kPa, Crystal, Small sample (50 mg) DSC

CCCCCC[n+]1cccc2ccccc21.O=S(=O)([N-]S(=O)(=O)C(F)(F)F)C(F)(F)F [1-hexylquinolinium bis(trifluoromethylsulfonyl)amide]
Conditions | molar heat capacity at constant pressure
203.04 K | 300.57 ± 30 J/K/mol [middle of 4 runs]
203.05 K | 300.39 ± 30 J/K/mol and 306.52 ± 31 J/K/mol
203.06 K | 305.88 ± 31 J/K/mol
203.08 K | 302.69 ± 31 J/K/mol
203.13 K | 298.95 ± 30 J/K/mol
203.21 K | 298.13 ± 30 J/K/mol
203.35 K | 295.39 ± 30 J/K/mol
203.56 K | 285.68 ± 29 J/K/mol
203.85 K | 280.12 ± 28 J/K/mol
204.22 K | 282.02 ± 28 J/K/mol
204.66 K | 288.24 ± 29 J/K/mol
205.16 K | 293.91 ± 30 J/K/mol
205.7 K | 295.33 ± 30 J/K/mol
206.26 K | 301.86 ± 31 J/K/mol
206.82 K | 315.29 ± 32 J/K/mol
207.36 K | 320.59 ± 32 J/K/mol
207.9 K | 319.02 ± 32 J/K/mol
208.43 K | 317.61 ± 32 J/K/mol
208.95 K | 317.22 ± 32 J/K/mol
209.48 K | 316.74 ± 32 J/K/mol
210.02 K | 313.5 ± 32 J/K/mol
210.58 K | 310.53 ± 31 J/K/mol
211.15 K | 311.06 ± 31 J/K/mol
211.74 K | 311.71 ± 31 J/K/mol
212.32 K | 311.41 ± 31 J/K/mol
212.92 K | 311.93 ± 32 J/K/mol
213.51 K | 313.38 ± 32 J/K/mol
214.11 K | 314.64 ± 32 J/K/mol
214.7 K | 315.47 ± 32 J/K/mol
215.3 K | 316.35 ± 32 J/K/mol
215.9 K | 317.1 ± 32 J/K/mol
216.5 K | 317.71 ± 32 J/K/mol
217.1 K | 318.5 ± 32 J/K/mol
217.7 K | 319.34 ± 32 J/K/mol
218.3 K | 320.14 ± 32 J/K/mol
218.9 K | 320.94 ± 32 J/K/mol
219.5 K | 321.78 ± 32 J/K/mol
220.1 K | 322.65 ± 33 J/K/mol
220.7 K | 323.47 ± 33 J/K/mol
221.3 K | 324.32 ± 33 J/K/mol
221.9 K | 325.15 ± 33 J/K/mol
222.5 K | 325.93 ± 33 J/K/mol
223.1 K | 326.77 ± 33 J/K/mol
223.7 K | 327.6 ± 33 J/K/mol
224.3 K | 328.43 ± 33 J/K/mol
224.9 K | 329.26 ± 33 J/K/mol
225.5 K | 330.08 ± 33 J/K/mol
226.1 K | 330.9 ± 33 J/K/mol
226.7 K | 331.78 ± 34 J/K/mol
227.3 K | 332.65 ± 34 J/K/mol
227.9 K | 333.52 ± 34 J/K/mol
228.5 K | 334.39 ± 34 J/K/mol
229.1 K | 335.29 ± 34 J/K/mol
229.7 K | 336.19 ± 34 J/K/mol
230.3 K | 337.06 ± 34 J/K/mol
230.9 K | 337.92 ± 34 J/K/mol
231.5 K | 338.75 ± 34 J/K/mol
232.1 K | 339.57 ± 34 J/K/mol
232.7 K | 340.41 ± 34 J/K/mol
233.3 K | 341.25 ± 34 J/K/mol
233.9 K | 342.13 ± 35 J/K/mol
234.5 K | 343.04 ± 35 J/K/mol
235.11 K | 343.9 ± 35 J/K/mol
235.71 K | 344.83 ± 35 J/K/mol
236.31 K | 345.73 ± 35 J/K/mol
236.91 K | 346.55 ± 35 J/K/mol
237.51 K | 347.39 ± 35 J/K/mol
238.11 K | 348.22 ± 35 J/K/mol
238.71 K | 348.99 ± 35 J/K/mol
239.31 K | 349.79 ± 35 J/K/mol
239.91 K | 350.56 ± 35 J/K/mol
240.51 K | 351.35 ± 35 J/K/mol
241.11 K | 352.21 ± 36 J/K/mol
241.71 K | 353.05 ± 36 J/K/mol
242.31 K | 353.86 ± 36 J/K/mol
242.91 K | 354.74 ± 36 J/K/mol
243.51 K | 355.63 ± 36 J/K/mol
244.11 K | 356.56 ± 36 J/K/mol
244.71 K | 357.47 ± 36 J/K/mol
245.31 K | 358.35 ± 36 J/K/mol
245.91 K | 359.26 ± 36 J/K/mol
246.51 K | 360.13 ± 36 J/K/mol
247.11 K | 360.95 ± 36 J/K/mol
247.71 K | 361.75 ± 37 J/K/mol
248.31 K | 362.5 ± 37 J/K/mol
248.91 K | 363.25 ± 37 J/K/mol
249.51 K | 363.98 ± 37 J/K/mol
250.11 K | 364.75 ± 37 J/K/mol
250.71 K | 365.53 ± 37 J/K/mol
251.31 K | 366.32 ± 37 J/K/mol
251.91 K | 367.13 ± 37 J/K/mol
252.51 K | 367.96 ± 37 J/K/mol
253.11 K | 368.8 ± 37 J/K/mol
253.71 K | 369.64 ± 37 J/K/mol
254.31 K | 370.52 ± 37 J/K/mol
254.91 K | 371.43 ± 38 J/K/mol
255.51 K | 372.34 ± 38 J/K/mol
256.11 K | 373.31 ± 38 J/K/mol
256.71 K | 374.34 ± 38 J/K/mol
257.31 K | 375.35 ± 38 J/K/mol
257.91 K | 376.38 ± 38 J/K/mol
258.51 K | 377.4 ± 38 J/K/mol
259.11 K | 378.39 ± 38 J/K/mol
259.71 K | 379.39 ± 38 J/K/mol
260.31 K | 380.35 ± 38 J/K/mol
260.91 K | 381.29 ± 39 J/K/mol
261.51 K | 382.27 ± 39 J/K/mol
262.11 K | 383.27 ± 39 J/K/mol
262.71 K | 384.28 ± 39 J/K/mol
263.31 K | 385.29 ± 39 J/K/mol
263.91 K | 386.31 ± 39 J/K/mol
264.51 K | 387.3 ± 39 J/K/mol
265.11 K | 388.31 ± 39 J/K/mol
265.71 K | 389.33 ± 39 J/K/mol
266.32 K | 390.32 ± 39 J/K/mol
266.92 K | 391.31 ± 40 J/K/mol
267.52 K | 392.31 ± 40 J/K/mol
268.12 K | 393.27 ± 40 J/K/mol
268.72 K | 394.25 ± 40 J/K/mol
269.32 K | 395.21 ± 40 J/K/mol
269.92 K | 396.11 ± 40 J/K/mol
270.52 K | 397.07 ± 40 J/K/mol
271.12 K | 398.06 ± 40 J/K/mol
271.72 K | 399.04 ± 40 J/K/mol
272.32 K | 400.09 ± 40 J/K/mol
272.92 K | 401.2 ± 41 J/K/mol
273.52 K | 402.31 ± 41 J/K/mol
274.12 K | 403.5 ± 41 J/K/mol
274.72 K | 404.68 ± 41 J/K/mol
275.32 K | 405.86 ± 41 J/K/mol
275.92 K | 407.08 ± 41 J/K/mol
276.52 K | 408.31 ± 41 J/K/mol
277.12 K | 409.49 ± 41 J/K/mol
277.72 K | 410.7 ± 41 J/K/mol
278.32 K | 411.89 ± 42 J/K/mol
278.92 K | 413.04 ± 42 J/K/mol
279.52 K | 414.18 ± 42 J/K/mol
280.12 K | 415.29 ± 42 J/K/mol
280.72 K | 416.38 ± 42 J/K/mol
281.32 K | 417.47 ± 42 J/K/mol
281.92 K | 418.55 ± 42 J/K/mol
282.52 K | 419.65 ± 42 J/K/mol
